Test results taken from patent publication US5395610A, “Agents for potentiating the effects of antitumor agents and combating multiple drug resistance” (Burroughs-Wellcome Co., priority 1989, dated 1995).
*1 amine or outer side, *2 acyl side, *3 side chain or, on linkers, in order; H or OH if unused. Where a SMILES comes first, the peptide text is derived from it. Bridges are numbered along the chain shown (N, C = ends). Roman numbers before positions name the chains, in order. [ ]: non-standard residue; d: D form. Actinocin(9to1) = Cc1c2oc3c(C)ccc(C(=O)[*:1])c3nc-2c(C(=O)[*:2])c(N)c1=O; NMeV = CN[C@H](C(=O)O)C(C)C; Sar = CNCC(=O)O

Columns and labels:
[1] = in vitro; assay type: cell-based, Chinese hamster; conditions: hamster, cho auxb1 cells
[2] = In vitro cytotoxicity / potentiation of Actinomycin D in Chinese hamster ovary cells, drug resistant C5S32 (MTT); assay type: cell-based; conditions: hamster, cho c5s32 cells, fraction of untreated cultures (1.00), read-out: Cytotoxicity, normalized absorbance, Drug Resistant C5S32, 0 (no Act D); for viability at 96 h, 1 µM: 1 μM potentiating agent alone; for viability at 96 h, 10 µM: 10 μM potentiating agent alone
[3] = system: Chinese hamster ovary (CHO) cells, drug resistant C5S32; assay: as above; assay type: cell-based; conditions: 96 h, fraction of Act D alone (1.00)
[4] = In vitro cytotoxicity / potentiation of Actinomycin D in human KB epidermoid carcinoma cells, wildtype KB 3-1 (MTT); assay type: cell-based; conditions: human, kb 3-1 cells, fraction of untreated cultures, read-out: Cytotoxicity, normalized absorbance, Wildtype KB 3-1, 0 (no Act D); for viability at 96 h, 1 µM: 1 μM potentiating agent alone; for viability at 96 h, 10 µM: 10 μM potentiating agent alone
[5] = system: human KB epidermoid carcinoma cells, wildtype KB 3-1; assay: as above; assay type: cell-based; conditions: 96 h, fraction of Act D alone
[6] = In vitro cytotoxicity / potentiation of Actinomycin D in human KB epidermoid carcinoma cells, drug resistant KB V-1 (MTT); assay type: cell-based; conditions: human, kb v-1 cells, fraction of untreated cultures, read-out: Cytotoxicity, normalized absorbance, Drug Resistant KB V-1, 0 (no Act D); for viability at 96 h, 1 µM: 1 μM potentiating agent alone; for viability at 96 h, 10 µM: 10 μM potentiating agent alone
[7] = system: human KB epidermoid carcinoma cells, drug resistant KB V-1; assay: as above; assay type: cell-based; conditions: 96 h, fraction of Act D alone
[8] = system: Chinese hamster ovary (CHO) cells, wildtype AuxB1; assay: cells; assay type: cell-based; conditions: Cricetulus griseus, AuxB1, read-out: reduction in cell number below the value of completely untreated cultures
[9] = system: resistant sublines of murine leukemia cells; conditions: cited from earlier work
[10] = 1 μM potentiating agent + Act D 0.5 μM
[11] = 10 μM potentiating agent + Act D 0.5 μM
[12] = 1 μM potentiating agent + Act D 0.1 nM
[13] = 10 μM potentiating agent + Act D 0.1 nM
[14] = 1 μM potentiating agent + Act D 20 nM
[15] = 10 μM potentiating agent + Act D 20 nM

Compound	viability at 96 h, 1 µM [1] [%]	viability at 96 h, 10 µM [1] [%]	viability at 96 h, 1 µM [2] [%]	viability at 96 h, 10 µM [2] [%]	Synergism with Actinomycin D, normalized absorbance, Drug Resistant C5S32, +ACT D [3, 10]	Synergism with Actinomycin D, normalized absorbance, Drug Resistant C5S32, +ACT D [3, 11]	viability at 96 h, 1 µM [4] [%]	viability at 96 h, 10 µM [4] [%]	Synergism with Actinomycin D, normalized absorbance, Wildtype KB 3-1, +ACT D [5, 12]	Synergism with Actinomycin D, normalized absorbance, Wildtype KB 3-1, +ACT D [5, 13]	viability at 96 h, 1 µM [6] [%]	viability at 96 h, 10 µM [6] [%]	Synergism with Actinomycin D, normalized absorbance, Drug Resistant KB V-1, +ACT D [7, 14]	Synergism with Actinomycin D, normalized absorbance, Drug Resistant KB V-1, +ACT D [7, 15]	inhibition at 0.01 µM [8] [%]	enhancement of the activity of antitumor agents against resistant sublines of murine leukemia cells [9]
CN(C)CC/C=C1\c2ccccc2COc2ccc(F)cc21 [(P), (E)-3-(2-fluoro-6,11-dihydrodibenz [b,e]oxepin-11-ylidine)-N,N-dimethylpropylamine]	100	100	61	31	0.70	0.38	65	65	0.72	0.71	73	52	0.72	0.58	–	–
CN(C)CC/C=C1/c2ccccc2COc2ccc(F)cc21 [(Q), (Z)-3-(2-fluoro-6,11-dihydrodibenz [b,e]oxepin-11-ylidene)-N,N-dimethylpropylamine]	97	93	53	33	0.69	0.37	92	77	0.91	0.78	86	80	0.83	0.65	–	–
Brc1ccc2c(c1)/C(=C\CCN1CCCC1)c1cc(Br)ccc1OC2 [(R), (E)-1-[3-(2,9-dibromo-6,11-dihydrodibenz [b,e]-oxepin-11-ylidene)propyl]pyrrolidine]	99	95	50	11	0.52	0.11	78	36	0.84	0.34	87	6	0.90	0.02	–	–
Fc1ccc2c(c1)/C(=C/CCN1CCCC1)c1ccccc1CO2 [(S), (E)-1-[3-(2-fluoro-6,11-dihydrodibenz [b,e]-oxepin-11-ylidene)propyl]pyrrolidine]	91	88	100	100	0.94	0.58	77	67	0.79	0.72	89	72	0.84	0.48	–	–
Fc1ccc2c(c1)/C(=C\CCN1CCCC1)c1ccccc1CO2 [(T), (Z)-1-[3-(2-fluoro-6,11-dihydrodibenz [b,e]-oxepin-11-ylidene)propyl]pyrrolidine]	100	100	100	100	1.00	0.53	86	81	0.90	0.83	96	84	0.92	0.64	–	–
Cc1c2oc3c(C)ccc(C(=O)N[C@@H]4C(=O)N[C@H](C(C)C)C(=O)N5CCC[C@H]5C(=O)N(C)CC(=O)N(C)[C@@H](C(C)C)C(=O)O[C@@H]4C)c3nc-2c(C(=O)N[C@@H]2C(=O)N[C@H](C(C)C)C(=O)N3CCC[C@H]3C(=O)N(C)CC(=O)N(C)[C@@H](C(C)C)C(=O)O[C@@H]2C)c(N)c1=O [Actinomycin D, reference compound] (I: T[dV]P[Sar][NMeV] / II: T[dV]P[Sar][NMeV]; ester I:1-I:C, II:1-II:C; linker I:N-II:N via Actinocin(9to1))	–	–	–	–	–	–	–	–	–	–	–	–	–	–	10 to 20	–
COc1ccc(CCN(C)CCCC(C#N)(c2ccc(OC)c(OC)c2)C(C)C)cc1OC (stereo not drawn) [Verapamil]	–	–	–	–	–	–	–	–	–	–	–	–	–	–	–	enhance the activity of antitumor agents
CCN(CC)CCn1c(=O)c(Cc2ccc(OC)cc2)nc2ccccc21 [caroverine]	–	–	–	–	–	–	–	–	–	–	–	–	–	–	–	enhance the activity of antitumor agents
CN(C)CCCN1c2ccccc2CCc2ccc(Cl)cc21 [clomipramine]	–	–	–	–	–	–	–	–	–	–	–	–	–	–	–	enhance the activity of antitumor agents
COc1ccc([C@@H]2Sc3ccccc3N(CCN(C)C)C(=O)[C@@H]2OC(C)=O)cc1 [diltiazem]	–	–	–	–	–	–	–	–	–	–	–	–	–	–	–	enhance the activity of antitumor agents
COC(=O)C1=C(C)NC(C)=C(C(=O)OCCN(C)Cc2ccccc2)C1c1cccc([N+](=O)[O-])c1 (stereo not drawn) [nicardipine]	–	–	–	–	–	–	–	–	–	–	–	–	–	–	–	enhance the activity of antitumor agents
C=C[C@H]1C[N@@]2CC[C@H]1C[C@@H]2[C@@H](O)c1ccnc2ccc(OC)cc12 [quinidine]	–	–	–	–	–	–	–	–	–	–	–	–	–	–	–	enhance the activity of antitumor agents
CN1CCN(CCCN2c3ccccc3Sc3ccc(C(F)(F)F)cc32)CC1 [trifluoperazine]	–	–	–	–	–	–	–	–	–	–	–	–	–	–	–	enhance the activity of antitumor agents
